Assay results: paper PMC8799644, “Decisive role of water and protein dynamics in residence time of p38α MAP kinase inhibitors” (Nature Communications, 2022)
“And” between values parts separate entries of the source, which are not always exact repeats. Equal values may be shown once. Read-outs that look alike come from different tables or passages of the source.

Columns and labels:
[1] = molecular target: T1, p38α MAPK (Homo sapiens, UniProt Q16539); conditions: n = 2; cited from earlier work
[2] = molecular target: T1, p38α MAPK; test: HotSpot radiometric kinase assay (Reaction Biology); assay type: biochemical; conditions: n = 1; 10 μM ATP; read-out: IC50 isolated enzyme p38α MAPK HotSpot
Protocol: Hotspot^TM radiometric assay[49] was conducted by Reaction Biology (Reaction Biology Corp., Malvern, PA, USA). In brief, five-dose singleton measurements were conducted starting from 1 μM compound concentration with a ten-fold serial dilution (lowest concentration of 0.1 nM). ATP concentration of 10 μM was used in the assay.

[3] = molecular target: p38α MAP kinase (Homo sapiens, UniProt Q16539); test: ADP-Glo luminescence kinase assay (isolated enzyme); assay type: biochemical
Protocol: IC50 determinations were performed using the luminescence-based ADP-Glo^TM assay by Promega, which measures kinase activity based on ADP formation. All required reagents were prepared according to manufacturer’s protocol. […] The kinase reaction was started by adding the substrate and ATP. After 60 min incubation time, the reaction was terminated by adding ADP-Glo^TM reagent and an incubation time of 60 min. At last, ADP-Glo TM kinase detection reagent was added and incubated for 30 min. All reactions were carried out on a plate shaker at room temperature. […] The ratio between kinase reaction, ADP-Glo TM reagent and ADP-Glo TM kinase detection reagent was 1:1:2. The positive control consisted of p38α MAP kinase, substrate and buffer. The assay was performed in triplicates. The negative control consisted of all kinase reaction components without enzyme. Luminescence was detected using the plate reader FilterMax F5 by Molecular Devices with subsequent data analysis using GraphPad Prism version 7.0.0. for Windows (GraphPad Software, San Diego, CA, USA).

[4] = molecular target: T1, p38α MAPK; conditions: cited from earlier work
[5] = molecular target: T1, p38α MAPK; test: Cell-based eGFP-MK2 translocation assay, DLD1_eGFP-MK2 cells; parameters: endogenous in cells
Text: (§1) For optical analysis, cells were fixed using 4% PFA/PBS following DAPI staining and subjected to automated high content analysis (HCA) image acquisition using an Image Xpress micro XL microscope (Molecular Devices). 40× Plan Apo objective was used to acquire FITC and DAPI signals at nine sites per well. MetaXpress® Custom Module Editor Software (64 bit, 6.2.3.733, Molecular Devices) was trained for automated image analysis. DAPI signal was used to define nuclear region of interest (ROI) and DAPI-negative cytoplasmic ring for respective cytoplasmic ROI. Non-cellular FITC background signals were subtracted from defined ROIs. Nuclear to cytoplasmic ratios were calculated from cellular fluorescence intensities of eGFP-MK2 reporter within defined ROIs. Cells with ratios within the 10–90 percentiles of all measured cells were taken into account.
Supplementary Figure 1. Cell-based eGFP-MK2 translocation assay: DLD1 cell line.
(A) Schematic overview of the cell-based eGFP-MK2 translocation assay. Active p38a MAPK phosphorylates its nuclear substrate MapKap2 (MK2) which leads to the exposure of the nuclear export signal and results in a cytoplasmic relocalization of MK2. Using a fluorescently labelled eGFP-MK2 as reporter, nuclear-cytoplasmic translocation can be used to monitor p38a MAPK […]
(B) Human DLD1 cell line stably […]
expressing eGFP-MK2 reporter under different treatment conditions.
(1 picture or pasted object on this page, not shown here)
Shown are microscopic images which were subjected to automated high content analysis to measure and calculate nuclear to cytoplasmic ratios of eGFP-MK2 signals providing the basis to evaluate inhibitory potency of p38a MAPK modulating […]
3 independent biological replicates. Scale bar: 50 µm. (C) Inhibition of eGFP-MK2 translocation by the compounds in DLD1_eGFP-MK2 cells. Normalized fluorescence (Fl) intensity ratio of […]
respectively. […] Data are presented as mean ± standard deviation (SD) of three biological replicates. Source data are provided as a Source Data […]
(§2) Supplementary Figure 2. Cell-based eGFP-MK2 translocation assay: HCT116 cell line.
(A) Human HCT116 cell line stably expressing eGFP-MK2 reporter under different treatment

[6] = molecular target: T1, p38α MAPK; test: Fluorescence polarization (Transcreener ADP) jump-dilution target residence time; assay type: biochemical; conditions: for millipolarization mP: Compound 1 run, replicas 1-3
[7] = molecular target: T1, p38α MAPK; test: Cell-based eGFP-MK2 translocation assay, HCT116_eGFP-MK2 cells; parameters: endogenous in cells
Text: as §1, with “account. […]” for “account.”
as §2
(A) Human HCT116 cell line stably expressing eGFP-MK2 reporter under different treatment […]
nucleus. Upon activation of the MAPK/p38 pathway, eGFP-MK2 is translocated to the cytoplasm […]
microscopic images which were subjected to automated high content analysis to measure and calculate nuclear to cytoplasmic ratios of eGFP-MK2 signals providing the basis to evaluate inhibitory potency of p38a MAPK modulating compounds. […]
sites that were imaged per condition for each of 3 independent biological replicates. Scale bar:
Normalized fluorescence (Fl) intensity ratio of nucleus/cytoplasm.
Data are presented as mean ± SD of three biological replicates. […]

Sequence of p38α MAP kinase (Q16539 whole entry): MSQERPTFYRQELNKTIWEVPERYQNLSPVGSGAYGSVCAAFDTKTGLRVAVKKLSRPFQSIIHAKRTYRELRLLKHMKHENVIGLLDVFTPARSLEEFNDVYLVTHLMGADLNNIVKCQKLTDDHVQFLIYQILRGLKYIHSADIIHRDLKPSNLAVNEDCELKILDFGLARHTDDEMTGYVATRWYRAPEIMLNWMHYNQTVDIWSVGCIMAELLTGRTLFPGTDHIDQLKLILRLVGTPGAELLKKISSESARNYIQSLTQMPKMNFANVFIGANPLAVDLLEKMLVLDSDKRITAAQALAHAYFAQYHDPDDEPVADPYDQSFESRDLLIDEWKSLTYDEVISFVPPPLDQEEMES
T1 sequence (Q16539 whole entry): as above

IC50 [2]: < 0.001 µM
IC50 ([3]; mean ± SD, 150 μM ATP, read-out: IC50 isolated enzyme p38α MAPK ADP-Glo (mean)): 0.0313 µM and 0.031 µM
IC50 ([3]; single experiments of source data, read-out: IC50 ADP Glo, individual determination): 0.035 µM and 0.04 µM and 0.019 µM
norm. FI (nucleus/ cytoplasm) ([5]; DLD1_eGFP-MK2, conc. 100 pM): 0.794
norm. FI (nucleus/ cytoplasm) ([5]; DLD1_eGFP-MK2, conc. 1e-9 M): 0.8106
norm. FI (nucleus/ cytoplasm) ([5]; DLD1_eGFP-MK2, conc. 3e-9 M): 0.8345
norm. FI (nucleus/ cytoplasm) ([5]; DLD1_eGFP-MK2, conc. 3e-8 M): 0.9192
norm. FI (nucleus/ cytoplasm) ([5]; DLD1_eGFP-MK2, conc. 1e-7 M): 0.9569
norm. FI (nucleus/ cytoplasm) ([5]; DLD1_eGFP-MK2, conc. 1e-6 M): 1.002
norm. FI (nucleus/ cytoplasm) ([5]; DLD1_eGFP-MK2, conc. 1e-5 M): 1.014
norm. FI (nucleus/ cytoplasm) ([5]; DLD1_eGFP-MK2, conc. 1e-5 M (last column, after 1e-10)): 0.8162
IC50 ([5]; DLD1_eGFP-MK2 cells, 1 h compound, n = 3, read-out: IC50 cell-based MK2 translocation DLD1): 0.0256 µM
millipolarization mP ([6]; Time 15 min): 250.23 mP and 238.61 mP and 252.02 mP
millipolarization mP ([6]; Time 20 min): 235.80 mP and 229.96 mP and 227.02 mP
millipolarization mP ([6]; Time 25 min): 216.96 mP and 215.61 mP and 220.53 mP
millipolarization mP ([6]; Time 30 min): 204.83 mP and 208.80 mP and 213.25 mP
millipolarization mP ([6]; Time 35 min): 199.40 mP and 197.40 mP and 204.19 mP
millipolarization mP ([6]; Time 40 min): 190.24 mP and 185.07 mP and 187.77 mP
millipolarization mP ([6]; Time 45 min): 188.70 mP and 189.13 mP and 187.22 mP
millipolarization mP ([6]; Time 50 min): 189.84 mP and 186.39 mP and 191.23 mP
millipolarization mP ([6]; Time 55 min): 181.96 mP and 176.31 mP and 180.38 mP
millipolarization mP ([6]; Time 60 min): 189.85 mP and 181.69 mP and 188.39 mP
millipolarization mP ([6]; Time 65 min): 179.72 mP and 178.04 mP and 185.39 mP
millipolarization mP ([6]; Time 70 min): 177.53 mP and 176.90 mP and 187.97 mP
millipolarization mP ([6]; Time 75 min): 176.40 mP and 178.56 mP and 178.94 mP
millipolarization mP ([6]; Time 80 min): 170.47 mP and 176.86 mP and 179.41 mP
millipolarization mP ([6]; Time 85 min): 174.74 mP and 171.47 mP and 178.98 mP
millipolarization mP ([6]; Time 90 min): 181.04 mP and 173.23 mP and 180.81 mP
millipolarization mP ([6]; Time 95 min): 176.14 mP and 169.30 mP and 175.95 mP
millipolarization mP ([6]; Time 100 min): 170.48 mP and 168.26 mP and 169.78 mP
millipolarization mP ([6]; Time 105 min): 171.74 mP and 175.00 mP and 171.83 mP
millipolarization mP ([6]; Time 110 min): 170.01 mP and 167.74 mP and 170.08 mP
millipolarization mP ([6]; Time 115 min): 166.92 mP and 166.97 mP and 168.10 mP
millipolarization mP ([6]; Time 120 min): 173.62 mP and 170.72 mP and 174.62 mP
millipolarization mP ([6]; Time 125 min): 170.41 mP and 162.47 mP and 172.42 mP
millipolarization mP ([6]; Time 130 min): 163.64 mP and 172.89 mP and 166.09 mP
millipolarization mP ([6]; Time 135 min): 165.07 mP and 173.17 mP and 167.48 mP
millipolarization mP ([6]; Time 140 min): 163.17 mP and 162.11 mP and 161.18 mP
millipolarization mP ([6]; Time 145 min): 163.48 mP and 161.58 mP and 158.43 mP
millipolarization mP ([6]; Time 150 min): 162.36 mP and 163.56 mP and 167.43 mP
millipolarization mP ([6]; Time 155 min): 167.52 mP and 168.31 mP and 165.22 mP
millipolarization mP ([6]; Time 160 min): 157.97 mP and 163.71 mP and 167.13 mP
millipolarization mP ([6]; Time 170 min): 171.90 mP and 157.15 mP and 163.48 mP
millipolarization mP ([6]; Time 175 min): 163.57 mP and 163.80 mP and 163.61 mP
millipolarization mP ([6]; Time 180 min): 166.27 mP
TRT ([6]; individual replicas 1-3): 317 s and 109 s and 270 s
TRT [sec] mean ([6]; mean of 3 replicas): 232 s
residence time ([6]; mean ± SD, n = 3, 1/koff, jump dilution 1:100, 40 μM ATP, ATF2, read-out: Target residence time FP (converted)): 3.87 min
norm. FI (nucleus/ cytoplasm) ([7]; HCT116_eGFP-MK2, conc. 100 pM): 0.8572
norm. FI (nucleus/ cytoplasm) ([7]; HCT116_eGFP-MK2, conc. 1e-9 M): 0.8754
norm. FI (nucleus/ cytoplasm) ([7]; HCT116_eGFP-MK2, conc. 3e-9 M): 0.8746
norm. FI (nucleus/ cytoplasm) ([7]; HCT116_eGFP-MK2, conc. 1e-8 M): 0.937
norm. FI (nucleus/ cytoplasm) ([7]; HCT116_eGFP-MK2, conc. 3e-8 M): 0.9809
norm. FI (nucleus/ cytoplasm) ([7]; HCT116_eGFP-MK2, conc. 1e-7 M): 1.0322
norm. FI (nucleus/ cytoplasm) ([7]; HCT116_eGFP-MK2, conc. 1e-6 M): 1.03
norm. FI (nucleus/ cytoplasm) ([7]; HCT116_eGFP-MK2, conc. 1e-5 M): 1.052
norm. FI (nucleus/ cytoplasm) ([7]; HCT116_eGFP-MK2, conc. 1e-5 M (last column, after 1e-10)): 0.8753
IC50 ([7]; HCT116_eGFP-MK2 cells, 1 h compound, n = 3, read-out: IC50 cell-based MK2 translocation HCT116): 0.0149 µM
Compound: O=C(NCCN1CCOCC1)c1ccc2c(c1)C(=O)c1ccc(Nc3ccc(F)cc3F)cc1CC2 [Compound 1]
Target residence time SPR [1]: 36 s
IC50 ([4]; mean ± SD, n = 3, read-out: IC50 isolated enzyme p38α MAPK ELISA (mean)): 0.0034 µM and 0.00335 µM
IC50 ([4]; single experiments of source data, read-out: IC50 ELISA, individual determination): 0.00354 µM and 0.0035 µM
